Data reported in PubChem BioAssay AID395 (SGCOxCompounds, 2006).

The molecules below were run against Serine/threonine-protein kinase 16 (Homo sapiens) (UniProt O75716) (assay: ligand-induced STK16 melting temperature shift – biophysical, recombinant human kinase, DSF (AID 395)). Settings: recombinant STK16, DSF thermal shift, SYPRO orange; at 10 µM; protein 2 µM; buffer 10 mM HEPES; hits give high values.
Chain of Serine/threonine-protein kinase 16 (Homo sapiens) (O75716 whole entry, looked up): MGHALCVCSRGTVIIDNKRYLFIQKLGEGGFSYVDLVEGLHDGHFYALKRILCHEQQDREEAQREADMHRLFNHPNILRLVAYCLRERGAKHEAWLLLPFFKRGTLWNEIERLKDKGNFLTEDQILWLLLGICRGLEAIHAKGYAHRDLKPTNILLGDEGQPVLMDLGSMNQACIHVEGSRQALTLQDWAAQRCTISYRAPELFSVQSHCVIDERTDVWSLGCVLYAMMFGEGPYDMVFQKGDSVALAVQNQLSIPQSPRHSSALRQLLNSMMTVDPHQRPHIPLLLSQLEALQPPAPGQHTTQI
Work on O=C1c2ccccc2-c2n[nH]c3cccc1c23 yielded a Tm shift of 6.85 °C.
COc1ccc2c(c1)/C(=C/c1cnc[nH]1)C(=O)N2 was tested, and the Tm shift was 4.35 °C.
Work on O=c1cc(-c2ccc(O)cc2)oc2cc(O)cc(O)c12 yielded a Tm shift of 4.78 °C.
In the case of Clc1ccc(-c2cnn3ccc(NCc4cccnc4)nc23)cc1, the Tm shift is reported as 3.85 °C.
Fc1ccc(CNc2ccc3ncc(-c4ccco4)n3n2)cc1 gave a Tm shift of 4.18 °C.
c1ccc(-c2cnc3ccc(NCc4cccs4)nn23)cc1 was tested, and the Tm shift was 3.62 °C.
CC(C)C(CO)Nc1nc(Nc2cccc(Cl)c2)c2ncn(C(C)C)c2n1 (stereo unspecified) was tested, and the Tm shift was 3.15 °C.
Work on c1csc(-c2cnc3ccc(NCC4CC4)nn23)c1 yielded a Tm shift of 4.3 °C.
CC(C)(C)c1nc2c3cc[nH]c(=O)c3c3cc(F)ccc3c2[nH]1 was tested, and the Tm shift was 3.46 °C.
O=c1c(O)c(-c2ccc(O)c(O)c2)oc2cc(O)cc(O)c12 gave a Tm shift of 4.78 °C.
O=Nc1c(-c2c(O)[nH]c3ccccc23)[nH]c2ccccc12 gave a Tm shift of 5.13 °C.
With Nc1ncnc2c1c(I)cn2[C@@H]1O[C@H](CO)C(O)C1O (stereo partly specified) the Tm shift was 3.88 °C.
COC(=O)c1cnc2oc3ccc(O)cc3c2c1-c1ccccc1 was tested, and the Tm shift was 5.35 °C.
In the case of Clc1cccc(Nc2ccn3ncc(-c4cccnc4)c3n2)c1, the Tm shift is reported as 5.48 °C.
Molecule O=c1[nH]c2ncc(-c3cccnc3)nc2n1C1CCCC1 has a Tm shift of 5.29 °C.
Cc1cc(C=C2C(=O)C=CC2=O)cc(C)c1O gave a Tm shift of 3.24 °C.
Work on O=C1Nc2ccccc2/C1=C\c1cnc[nH]1 yielded a Tm shift of 7.49 °C.
Molecule O=C1Nc2ccccc2/C1=C/c1ccc[nH]1 has a Tm shift of 4.28 °C.
CC1N=C2SC=CN2C(=O)C1CCN1CCC(=C(c2ccccc2)c2ccc(F)cc2)CC1 (stereo unspecified) gave a Tm shift of 3.67 °C.
With Clc1cccc(-c2cnc3ccc(NC4CCOCC4)nn23)c1 the Tm shift was 4 °C.
Work on Clc1cccc(Nc2ccn3ncc(-c4ccsc4)c3n2)c1 yielded a Tm shift of 3.69 °C.

Same assay, conditions: recombinant STK16, DSF thermal shift, SYPRO orange; at 10 µM; protein 2 µM; buffer 10 mM HEPES; pH 7.5; NaCl 150 mM; hits give high values
O=C1NC(=O)C(c2c[nH]c3ccccc23)=C1c1c[nH]c2ccccc12 was tested, and the Tm shift was 3.4 °C.
COc1cc(C2Oc3cc(O)cc(O)c3C(=O)C2=O)ccc1O (stereo unspecified) was tested, and the Tm shift was 3.97 °C.
O=c1cc(-c2ccccc2)oc2cc(O)cc(O)c12 showed a Tm shift of 5.74 °C.
Cc1cc(Nc2nc(-c3ccccc3)nc3ccccc23)n[nH]1 showed a Tm shift of 11.1 °C.
CCN(CC)CCNC(=O)c1c(C)[nH]c(/C=C2\C(=O)Nc3ccc(Cl)cc32)c1C gave a Tm shift of 6 °C.
Cc1nc(N)sc1-c1ccnc(Nc2cccc(-n3oo3)c2)n1 was tested, and the Tm shift was 10.7 °C.
O=Nc1c(-c2c(O)[nH]c3ccc(S(O)(O)O)cc23)[nH]c2ccccc12 showed a Tm shift of 5.7 °C.
For N=C(N)SCCCn1cc(C2=C(c3c[nH]c4ccccc34)C(=O)NC2=O)c2ccccc21, the Tm shift was 4.3 °C.
Molecule O=c1c(O)c(-c2ccc(O)c(O)c2)oc2cc(O)ccc12 has a Tm shift of 8.54 °C.
In the case of CC(C)c1nn(-c2c(Cl)cccc2Cl)c2nc(Cc3ccc(OCCO)cc3)[nH]c(=O)c12, the Tm shift is reported as 3.5 °C.
For OCC(O)CCO/N=C1/C(c2c(O)[nH]c3ccccc23)=Nc2ccccc21 (stereo unspecified), the Tm shift was 11.7 °C.
With O=C(c1ccc(Nc2nccc(-c3cc4ccccc4s3)n2)cc1)N1CCC(N2CCCC2)CC1 the Tm shift was 8.9 °C.
Work on NCCCn1cc(C2=C(c3c[nH]c4ccccc34)C(=O)NC2=O)c2ccccc21 yielded a Tm shift of 4.96 °C.
O=C1C(=O)C(c2cccc(O)c2)Oc2ccccc21 (stereo unspecified) showed a Tm shift of 4.41 °C.
For Cn1cc(/C=C2\C(=O)Nc3ccc(S(N)(=O)=O)cc32)c2ccccc21, the Tm shift was 4.8 °C.
Molecule NS(=O)(=O)c1ccc(Nc2nc(OCC3CCCCC3)c3[nH]cnc3n2)cc1 has a Tm shift of 4.1 °C.
For O=Nc1c(-c2c(O)[nH]c3ccc(I)cc23)[nH]c2ccccc12, the Tm shift was 4.2 °C.
In the case of N#C/C(=C1\Nc2ccccc2S1)c1ccnc(NCCc2cccnc2)n1, the Tm shift is reported as 5.5 °C.
In the case of Nc1cccc(-c2cc3c(Oc4cccc(O)c4)ncnc3[nH]2)c1, the Tm shift is reported as 5.9 °C.
O=c1c(O)c(-c2ccc(O)c(O)c2)oc2cc(O)cc(O)c12 showed a Tm shift of 4.75 °C.
Cc1c(O)cc(O)c2c1OC(c1ccc(O)c(O)c1)C(=O)C2=O (stereo unspecified) gave a Tm shift of 3.29 °C.
For O=c1c(O)c(-c2ccc(O)cc2)oc2cc(O)cc(O)c12, the Tm shift was 3.87 °C.
Molecule CC1N=C2SC=CN2C(=O)C1CCN1CCC(=C(c2ccccc2)c2ccc(F)cc2)CC1 (stereo unspecified) has a Tm shift of 3.2 °C.
Work on CC(O)O/N=C1/C(c2c(O)[nH]c3cc(Br)ccc23)=Nc2ccccc21 (stereo unspecified) yielded a Tm shift of 4.2 °C.
Molecule Nc1nc(Nc2ccc(S(N)(=O)=O)cc2)nn1C(=S)Nc1c(F)cccc1F has a Tm shift of 7.8 °C.
With O=C1NCc2c1c1c3ccccc3[nH]c1c1[nH]c3ccccc3c21 the Tm shift was 3.9 °C.
Molecule O=c1[nH]c(O)c2c1c1c3ccccc3nc1n1cncc21 has a Tm shift of 5.4 °C.
Molecule O=C(Nc1cccc(Nc2nccc(Nc3cccc(C(F)(F)F)c3)n2)c1)C1CC1 has a Tm shift of 5.75 °C.
In the case of NC(=O)Nc1sc(-c2ccccc2)cc1C(N)=O, the Tm shift is reported as 4.5 °C.
O=c1cc(-c2ccc(O)c(O)c2)oc2cc(O)cc(O)c12 was tested, and the Tm shift was 4.82 °C.
